Values joined by “and” are separate entries in the source; they are usually repeats but may differ in a detail not shown here. Equal values may be shown once.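 Five concentrations, 48 hours, 96-well plates. GI50: concentration for 50% inhibition of growth.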 Active and inactive are the calls of the source. Cut-off read from the data, not from the text of the source: active = GI50 up to about 1.1 µM and inactive = higher.
Tests used:
Test in all cases: NCI-60 cell line screen, 48 h
786-0 = tested on: 786-0
DU-145 = tested on: DU-145
HOP-62 = tested on: HOP-62
Hs-578T = tested on: Hs-578T
IGROV-1 = tested on: IGROV-1
M14 = tested on: M14
MCF7 = tested on: MCF7
MOLT-4 = tested on: MOLT-4
NCI-H460 = tested on: NCI-H460
OVCAR-3 = tested on: OVCAR-3
SF-295 = tested on: SF-295
SN12C = tested on: SN12C
SR = tested on: SR
SW-620 = tested on: SW-620
COLO 205 = tested on: COLO 205
EKVX = tested on: EKVX
HCT-116 = tested on: HCT-116
HCT-15 = tested on: HCT-15

Row | Structure (SMILES) | GI50 (786-0) | GI50 (DU-145) | GI50 (HOP-62) | GI50 (Hs-578T) | GI50 (IGROV-1) | GI50 (M14) | GI50 (MCF7) | GI50 (MOLT-4) | GI50 (NCI-H460) | GI50 (OVCAR-3) | GI50 (SF-295) | GI50 (SN12C) | GI50 (SR) | GI50 (SW-620) | GI50 (COLO 205) | GI50 (EKVX) | GI50 (HCT-116) | GI50 (HCT-15)
1 | CC(=O)OCC1OC(SC2=NC(=O)CS2)C(OC(C)=O)C(OC(C)=O)C1OC(C)=O (stereo unspecified) | > 100 µM (inactive) | > 100 µM (inactive) | > 100 µM (inactive) | > 100 µM (inactive) | > 100 µM (inactive) | > 100 µM (inactive) | 71.4 µM (inactive) | 57.7 µM (inactive) and 51.8 µM (inactive) | > 100 µM (inactive) | > 100 µM (inactive) | > 100 µM (inactive) | > 100 µM (inactive) | 39.6 µM (inactive) and 67.5 µM (inactive) | > 100 µM (inactive) |  |  |  | 
2 | O=c1[nH][nH]c(=O)n1Cc1cccc(Cn2c(=O)[nH][nH]c2=O)c1 | > 100 µM (inactive) | > 100 µM (inactive) |  | > 100 µM (inactive) |  | > 100 µM (inactive) | > 100 µM (inactive) | > 100 µM (inactive) | > 100 µM (inactive) | > 100 µM (inactive) |  | > 100 µM (inactive) | > 100 µM (inactive) | > 100 µM (inactive) | > 100 µM (inactive) | > 100 µM (inactive) | > 100 µM (inactive) | > 100 µM
3 | Cc1ccc(/N=N/C(=N/NC(=O)c2cc(Cl)ccc2O)c2ccc(N(CCC#N)CCC#N)cc2C)cc1 | 28.1 µM (inactive) | 26.9 µM (inactive) | 32.8 µM (inactive) | 9.95 µM (inactive) | 23.9 µM (inactive) | 30.6 µM (inactive) | 24.7 µM (inactive) | 53.7 µM (inactive) | 21.8 µM (inactive) | 11.1 µM (inactive) | 21.3 µM (inactive) | 28.4 µM (inactive) | 51.2 µM (inactive) |  | 12.4 µM (inactive) | 21.5 µM (inactive) | 19 µM (inactive) | 32.1 µM
4 | CC(=O)OC1[C@H](OC(C)=O)C2=C(C)[C@@H](OC(C)=O)C[C@@]2(C(C)(C)O)[C@@H](OC(C)=O)[C@H]2[C@@]1(C)[C@@H](OC(C)=O)CC(OC(C)=O)[C@]21CO1 (stereo partly specified) | > 100 µM (inactive) | > 100 µM (inactive) | > 100 µM (inactive) | > 100 µM (inactive) |  | > 100 µM (inactive) | > 100 µM (inactive) | > 100 µM (inactive) |  | > 100 µM (inactive) | > 100 µM (inactive) | > 100 µM (inactive) | > 100 µM (inactive) | > 100 µM (inactive) | > 100 µM (inactive) | > 100 µM (inactive) | > 100 µM (inactive) | > 100 µM
5 | COc1cccc(-c2cc(O)c3cc(C)cnc3n2)c1 | 0.0488 µM (active) | 0.308 µM (active) | 0.0682 µM (active) | 0.0495 µM (active) | 0.469 µM (active) | 0.0543 µM (active) | 0.543 µM (active) | 0.115 µM (active) | 0.0458 µM (active) | 0.049 µM (active) | 0.0405 µM (active) | 0.0538 µM (active) | 0.0297 µM (active) | 0.06 µM (active) | 0.0449 µM (active) |  | 0.0323 µM (active) | 0.251 µM
6 | CC(C)(C)NCC(O)COc1cccc2[nH]c(C#N)cc12 (stereo unspecified) [CYANOPINDOLOL] | > 100 µM (inactive) | > 100 µM (inactive) | > 100 µM (inactive) | > 100 µM (inactive) | > 100 µM (inactive) | > 100 µM (inactive) | > 100 µM (inactive) | > 100 µM (inactive) |  | > 100 µM (inactive) | > 100 µM (inactive) | > 100 µM (inactive) | > 100 µM (inactive) | > 100 µM (inactive) | 56 µM (inactive) | > 100 µM (inactive) | > 100 µM (inactive) | > 100 µM

— ChEMBL document CHEMBL1201862, “PubChem BioAssay data set” (2004)
